test system: MCF7; assay: Cytotoxicity against human MCF7 cells after 48 hrs by SRB assay; format: functional, cell-based

Structure (SMILES)	IC50 [µM]
COc1ccc(/C=N/NC(=O)c2ccc(Nc3ccccc3C(=O)N/N=C/c3ccc(OC)c(OC)c3)cc2)cc1OC	0.81
Sc1nnc(-c2ccc(Nc3ccccc3-c3nnc(S)o3)cc2)o1	2
c1ccc(CSc2nnc(-c3ccc(Nc4ccccc4-c4nnc(SCc5ccccc5)o4)cc3)o2)cc1	0.73
C=CCSc1nnc(-c2ccc(Nc3ccccc3-c3nnc(SCC=C)o3)cc2)o1	1.05
CN(C)c1ccc(/C=N/NC(=O)c2ccc(Nc3ccccc3C(=O)N/N=C/c3ccc(N(C)C)cc3)cc2)cc1	1.23
CCNc1nnc(-c2ccc(Nc3ccccc3-c3nnc(NCC)s3)cc2)s1	0.94
CCn1c(S)nnc1-c1ccc(Nc2ccccc2-c2nnc(S)n2CC)cc1	2.38
